Earlier results as cited in patent US10329245B2, “Method for making a prenyl group-substituted tyrosine compound” (King Fahd University of Petroleum and Minerals, priority 2015, dated 2019).
Where two headings read alike, the source gives them in different places.

System: AGS (human gastric adenocarcinoma) cells
Conditions: AGS cell lines, p<0.01

SMILES: CC(=O)N[C@@H](Cc1ccc(O)c(CC=C(C)C)c1)C(=O)O [compound 1, (S)-2-Acetamido-3-(4-hydroxy-3-(3-methylbut-2-enyl)phenyl)propanoic acid]
- cell viability, % of control levels (75 μM compound 1 combined with 100 ng/mL TRAIL): 77±7%
- cell viability, % of control levels (150 μM compound 1 combined with 100 ng/mL TRAIL): 67±5%
